Test results published in PubChem BioAssay (NCI).
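Cultured in 96-well plates, cells were exposed to test compound for 48 hours across five concentrations. The concentration for 50% growth inhibition is given as GI50. The concentration for full growth arrest is given as TGI.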

Key:
Test in all cases: NCI-60 cell line screen, 48 h
MCF7 breast = tested on: MCF7 breast
786-0 renal = tested on: 786-0 renal
ACHN renal = tested on: ACHN renal
DU-145 prostate = tested on: DU-145 prostate
TK-10 renal = tested on: TK-10 renal
T-47D breast = tested on: T-47D breast
NCI/ADR-RES ovarian = tested on: NCI/ADR-RES ovarian
NCI-H226 lung = tested on: NCI-H226 lung
SK-MEL-2 melanoma = tested on: SK-MEL-2 melanoma
SN12C renal = tested on: SN12C renal
CCRF-CEM leukemia = tested on: CCRF-CEM leukemia
MOLT-4 leukemia = tested on: MOLT-4 leukemia
RPMI-8226 leukemia = tested on: RPMI-8226 leukemia
A549 NSCLC = tested on: A549 NSCLC
MDA-MB-231 breast = tested on: MDA-MB-231 breast
SK-MEL-28 melanoma = tested on: SK-MEL-28 melanoma
K-562 leukemia = tested on: K-562 leukemia
MDA-MB-468 breast = tested on: MDA-MB-468 breast
SK-MEL-5 melanoma = tested on: SK-MEL-5 melanoma
SF-268 CNS = tested on: SF-268 CNS
COLO 205 colon = tested on: COLO 205 colon
A498 renal = tested on: A498 renal
RXF 393 renal = tested on: RXF 393 renal
SW-620 colon = tested on: SW-620 colon
BT-549 breast = tested on: BT-549 breast
UACC-62 melanoma = tested on: UACC-62 melanoma
UO-31 renal = tested on: UO-31 renal
OVCAR-4 ovarian = tested on: OVCAR-4 ovarian
MDA-MB-435 = tested on: MDA-MB-435
UACC-257 melanoma = tested on: UACC-257 melanoma
SF-295 CNS = tested on: SF-295 CNS
SF-539 CNS = tested on: SF-539 CNS
SNB-19 CNS = tested on: SNB-19 CNS
HCT-116 colon = tested on: HCT-116 colon
EKVX NSCLC = tested on: EKVX NSCLC
U251 CNS = tested on: U251 CNS
KM12 colon = tested on: KM12 colon
HCC-2998 colon = tested on: HCC-2998 colon
SK-OV-3 ovarian = tested on: SK-OV-3 ovarian
OVCAR-3 ovarian = tested on: OVCAR-3 ovarian
NCI-H522 lung = tested on: NCI-H522 lung
HOP-92 NSCLC = tested on: HOP-92 NSCLC
HOP-62 NSCLC = tested on: HOP-62 NSCLC
HT29 colon = tested on: HT29 colon
M14 melanoma = tested on: M14 melanoma
NCI-H23 lung = tested on: NCI-H23 lung
LOX IMVI melanoma = tested on: LOX IMVI melanoma
PC-3 prostate = tested on: PC-3 prostate
OVCAR-5 ovarian = tested on: OVCAR-5 ovarian
MALME-3M melanoma = tested on: MALME-3M melanoma
SR leukemia = tested on: SR leukemia
OVCAR-8 ovarian = tested on: OVCAR-8 ovarian
NCI-H460 lung = tested on: NCI-H460 lung
CAKI-1 renal = tested on: CAKI-1 renal
HL-60(TB) leukemia = tested on: HL-60(TB) leukemia
HS 578T breast = tested on: HS 578T breast
IGROV1 ovarian = tested on: IGROV1 ovarian
HCT-15 colon = tested on: HCT-15 colon

For `C/C(=N\Nc1ccc(S(N)(=O)=O)cc1)c1ccc(N=Nc2c(Nc3ccccc3)[nH][nH]c2=O)cc1`, the GI50 (MCF7 breast) was 2.4 µM, the TGI (MCF7 breast) was 7.34 µM and the GI50 (786-0 renal) was 2.14 µM. For the same compound, the TGI (786-0 renal) was 6.27 µM, the GI50 (ACHN renal) was 5.9 µM and the TGI (ACHN renal) was 18.5 µM. For the same compound, the GI50 (DU-145 prostate) was 3.21 µM, the TGI (DU-145 prostate) was 10.4 µM and the GI50 (TK-10 renal) was 18.6 µM. The TGI (TK-10 renal) was 56.8 µM, the GI50 (T-47D breast) was 2.22 µM and the TGI (T-47D breast) was 5.92 µM. For the same compound, the GI50 (NCI/ADR-RES ovarian) was > 100 µM, the TGI (NCI/ADR-RES ovarian) was > 100 µM and the GI50 (NCI-H226 lung) was 3.31 µM. It also gave a TGI (NCI-H226 lung) of 12.3 µM, a GI50 (SK-MEL-2 melanoma) of 2.11 µM and a TGI (SK-MEL-2 melanoma) of 4.38 µM. The GI50 (SN12C renal) was 2.38 µM, the TGI (SN12C renal) was 6.58 µM and the GI50 (CCRF-CEM leukemia) was 2.63 µM. It also gave a TGI (CCRF-CEM leukemia) of 8.92 µM, a GI50 (MOLT-4 leukemia) of 1.64 µM and a TGI (MOLT-4 leukemia) of 5.24 µM. The GI50 (RPMI-8226 leukemia) was 3.36 µM, the TGI (RPMI-8226 leukemia) was 28.2 µM and the GI50 (A549 NSCLC) was 19.4 µM. For the same compound, the TGI (A549 NSCLC) was > 100 µM, the GI50 (MDA-MB-231 breast) was 2 µM and the TGI (MDA-MB-231 breast) was 4.07 µM. It also gave a GI50 (SK-MEL-28 melanoma) of 1.91 µM, a TGI (SK-MEL-28 melanoma) of 3.65 µM and a GI50 (K-562 leukemia) of 2.29 µM. It also gave a TGI (K-562 leukemia) of 6.37 µM, a GI50 (MDA-MB-468 breast) of 1.4 µM and a TGI (MDA-MB-468 breast) of 3 µM. It also gave a GI50 (SK-MEL-5 melanoma) of 3.32 µM, a TGI (SK-MEL-5 melanoma) of 12.8 µM and a GI50 (SF-268 CNS) of 2.22 µM. It also gave a TGI (SF-268 CNS) of 6.23 µM, a GI50 (COLO 205 colon) of 3.28 µM and a TGI (COLO 205 colon) of 12 µM. For the same compound, the GI50 (A498 renal) was 11.4 µM, the TGI (A498 renal) was 32.8 µM and the GI50 (RXF 393 renal) was 1.1 µM. For the same compound, the TGI (RXF 393 renal) was 3.88 µM, the GI50 (SW-620 colon) was 3.18 µM and the TGI (SW-620 colon) was 12.6 µM. It also gave a GI50 (BT-549 breast) of 2.83 µM, a TGI (BT-549 breast) of 9.66 µM and a GI50 (UACC-62 melanoma) of 1.96 µM. For the same compound, the TGI (UACC-62 melanoma) was 4.34 µM, the GI50 (UO-31 renal) was 19.4 µM and the TGI (UO-31 renal) was > 100 µM. For the same compound, the GI50 (OVCAR-4 ovarian) was 2.84 µM, the TGI (OVCAR-4 ovarian) was 9.26 µM and the GI50 (MDA-MB-435) was 2.07 µM. It also gave a TGI (MDA-MB-435) of 5.03 µM, a GI50 (UACC-257 melanoma) of 3.97 µM and a TGI (UACC-257 melanoma) of 16.7 µM. It also gave a GI50 (SF-295 CNS) of 3.67 µM, a TGI (SF-295 CNS) of 13.6 µM and a GI50 (SF-539 CNS) of 1.58 µM. It also gave a TGI (SF-539 CNS) of 3.68 µM, a GI50 (SNB-19 CNS) of 2.59 µM and a TGI (SNB-19 CNS) of 8.76 µM. It also gave a GI50 (HCT-116 colon) of 3.04 µM, a TGI (HCT-116 colon) of 10.3 µM and a GI50 (EKVX NSCLC) of 5.39 µM. For the same compound, the TGI (EKVX NSCLC) was 26.9 µM, the GI50 (U251 CNS) was 1.88 µM and the TGI (U251 CNS) was 3.76 µM. It also gave a GI50 (KM12 colon) of 2.66 µM, a TGI (KM12 colon) of 8.95 µM and a GI50 (HCC-2998 colon) of 2.29 µM. For the same compound, the TGI (HCC-2998 colon) was 6.08 µM, the GI50 (SK-OV-3 ovarian) was 2.34 µM and the TGI (SK-OV-3 ovarian) was 6.47 µM. For the same compound, the GI50 (OVCAR-3 ovarian) was 1.87 µM, the TGI (OVCAR-3 ovarian) was 4.54 µM and the GI50 (NCI-H522 lung) was 2.17 µM. For the same compound, the TGI (NCI-H522 lung) was 5.25 µM, the GI50 (HOP-92 NSCLC) was 1.3 µM and the TGI (HOP-92 NSCLC) was 6.55 µM. The GI50 (HOP-62 NSCLC) was 2.05 µM, the TGI (HOP-62 NSCLC) was 6 µM and the GI50 (HT29 colon) was 3.58 µM. It also gave a TGI (HT29 colon) of 11.6 µM, a GI50 (M14 melanoma) of 2.83 µM and a TGI (M14 melanoma) of 7.55 µM. It also gave a GI50 (NCI-H23 lung) of 2.54 µM, a TGI (NCI-H23 lung) of 6.53 µM and a GI50 (LOX IMVI melanoma) of 2.13 µM. For the same compound, the TGI (LOX IMVI melanoma) was 4.33 µM, the GI50 (PC-3 prostate) was 3.06 µM and the TGI (PC-3 prostate) was 11.3 µM. For the same compound, the GI50 (OVCAR-5 ovarian) was 11 µM, the TGI (OVCAR-5 ovarian) was 24.4 µM and the GI50 (MALME-3M melanoma) was 1.98 µM. For the same compound, the TGI (MALME-3M melanoma) was 3.85 µM, the GI50 (SR leukemia) was 1.74 µM and the TGI (SR leukemia) was 5.33 µM. For the same compound, the GI50 (OVCAR-8 ovarian) was 2.59 µM, the TGI (OVCAR-8 ovarian) was 7.81 µM and the GI50 (NCI-H460 lung) was 3.21 µM. It also gave a TGI (NCI-H460 lung) of 11.1 µM, a GI50 (CAKI-1 renal) of 12.5 µM and a TGI (CAKI-1 renal) of 25.1 µM. The GI50 (HL-60(TB) leukemia) was 2.86 µM, the TGI (HL-60(TB) leukemia) was 17.1 µM and the GI50 (HS 578T breast) was 3.31 µM. The TGI (HS 578T breast) was 19.4 µM, the GI50 (IGROV1 ovarian) was 4.5 µM and the TGI (IGROV1 ovarian) was 17.6 µM. The GI50 (HCT-15 colon) was 5.29 µM and the TGI (HCT-15 colon) was 18.4 µM.
